In assay [1] the test system is mice (tail flick, heat beam pain reaction). Description: Tail flick Test in Mice. Type of assay: in vivo. To be noted: sc, 0.5 h; mouse, s.c.; 30 minutes after administration; >75% increase of reaction time in 50% of animals. The protocol: (§1) This analgesic activity has been evaluated in two pharmacological standard methods, the tail flick test in mice and the arthritis pain test in rats.
3. Tail flick Test in Mice.
This test is carried out according to the method described by D'Amour and Smith (1941), yet fed male and female mice having a body weight of 16 to 25 g are used instead of rats. Thirty minutes prior to treatment with the test compound, each mouse is placed separately in a cylindrical container in such a manner that it cannot turn itself or move forward. Its tail is positioned in a narrow groove projecting out of the container. A certain point of the tail of each animal (about 35 mm beyond the root of the tail) is subjected to the heat beam of a lamp of known strength and temperature which is positioned directly under the tail. The number of seconds which pass before the mouse moves its tail out of the light beam is determined twice, once 30 minutes and once 15 minutes prior to subcutaneous administration of the test compound (10 mg/kg). Mice which show a reaction time differing more than 25% are eliminated from the test. The reaction time is again determined 15 minutes and 30 minutes after the treatment and an increase of the reaction period of more than 75% of the average values prior to treatment in the same animal is considered as showing an analgesic effect. The ED50 (95% reliability) of each test compound 30 minutes after administration is evaluated according to the method of Litchfield and Wilcoxon (1949). The dose which increases the reaction time as compared to the reaction time prior to treatment for more than 75% in 50% of the animals is considered as ED50.
In general terms: In hot-plate and tail-flick tests a longer latency is read as antinociception.

The test system of assay [2] is rats (secondary arthritis pain, mycobacterium smegmae). Description: Arthritis Pain Test in Rats. Type of assay: in vivo. To be noted: po, rat, p.o., 3 hours after administration, protection in 50% of treated animals. As to the method:
as §1
2. Arthritis Pain Test in Rats.
Male rats having a weight of from 160 to 180 g are anesthetized by small i.p. injection of 20 mg/kg of sodium pentobarbital and 0.1 ml of a suspension of mycobacterium smegmae (SI 043) in liquid paraffin (0.6 mg mycobacterium/0.1 ml of oil) are injected intracutaneously into the left rear paw. Fourteen days later when a marked secondary arthritis has developed in particular in the right rear paw, the effect of the test compound is evaluated. A control-reading is taken 30 minutes prior to administration of the test compound by bending the foot joint of the right rear paw three times and counting the number of squeakings. […] Three hours after oral administration of the test compound the bending of the joint is repeated. Animals which squeak only once or not at all are considered to be protected against pain. Between about 9 and 20 rats are used per dose and the ED50 (95% reliability) is determined according to the method of Litchfield and Wilcoxon (1949). The dose which provides protection in 50% of the treated animals is taken as ED50.

Bounds are passed on as bounds.

Broadly, the ED50 is the dose at which the effect has come halfway, by size or by number of responders. Lower therefore signals an effect at a small dose. In the case of `CN1c2ccccc2C(c2ccccc2)=NCC1CNC(=O)c1ccoc1` (stereo not shown) [Compound 22, 1-methyl-2-[(furane-3-carbonyl)-aminomethyl]-5-phenyl-2,3-dihydro-1,4-benzodiazepine], the figures for the ED50 in assay [1] and in assay [2] were 0.44 mg/kg and 14 mg/kg, respectively.
For `COc1ccc2c(c1)N(C)C(CNC(=O)c1sccc1C)CN=C2c1ccccc1` (stereo not shown) [Compound 23, 8-methoxy-1-methyl-2-[(3-methylthiophene-2-carbonyl)-aminomethyl]-5-phenyl-1H-2,3-dihydro-1,4-benzodiazepine], in that order: 7.2 mg/kg and 25 mg/kg.
For `CN1c2cc3c(cc2C(c2ccccc2)=NCC1CNC(=O)c1cccs1)OCO3` (stereo not shown) [Compound 24, 7,8-methylenedioxy-1-methyl-2-[(thiophene-2-carbonyl)-aminomethyl]-5-phenyl-1H-2,3-dihydro-1,4-benzodiazepine], in that order: 3.8 mg/kg and 10 mg/kg.
For `CN1c2cc3c(cc2C(c2ccccc2)=NCC1CNC(=O)c1ccco1)OCO3` (stereo not shown) [Compound 25], in that order: < 5.6 mg/kg and < 32 mg/kg.
In the case of `CN1c2cc3c(cc2C(c2ccccc2)=NCC1CNC(=O)c1ccoc1)OCO3` (stereo not shown) [Compound 26, 7,8-methylenedioxy-1-methyl-2-[(furane-3-carbonyl)-aminomethyl]-5-phenyl-1H-2,3-dihydro-1,4-benzodiazepine], the ED50 was 2 mg/kg in assay [1] and < 5.6 mg/kg in assay [2].
On to `COc1ccc2c(c1)N(C)C(CNC(=O)c1ccc(Br)s1)CN=C2c1ccccc1` (stereo not shown) [Compound 27, 8-methoxy-1-methyl-2-[(5-bromothiophene-2-carbonyl)-aminomethyl]-5-phenyl-1H-2,3-dihydro-1,4-benzodiazepine], for which the ED50 in assay [1] is > 5.6 mg/kg; in assay [2] it was < 32 mg/kg.
With `O=C(NCC1CN=C(c2ccccc2)c2ccccc2N1)c1cccs1` (stereo not shown) [Compound 28, 2-[(thiophene-2-carbonyl)-aminomethyl]-5-phenyl-1H-2,3-dihydro-1,4-benzodiazepine], the ED50 in assay [1] was 4.2 mg/kg; in assay [2], > 32 mg/kg.
For `COc1ccc2c(c1)N(C)C(CNC(=O)c1cccnc1)CN=C2c1ccccc1` (stereo not shown) [Compound 29, 8-methoxy-1-methyl-2-nicotinoylaminomethyl-5-phenyl-1H-2,3-dihydro-1,4-benzodiazepine], in that order: 4 mg/kg and 30 mg/kg.
For `COc1ccc2c(c1)N(C)C(CNC(=O)c1ccccn1)CN=C2c1ccccc1` (stereo not shown) [Compound 30, 8-methoxy-1-methyl-2-picolinoylaminomethyl-5-phenyl-1H-2,3-dihydro-1,4-benzodiazepine], in that order: 7 mg/kg and > 32 mg/kg.
For `COc1ccc2c(c1)N(C)C(CNC(=O)c1ccc(C)o1)CN=C2c1ccccc1` (stereo not shown) [Compound 31, 8-methoxy-1-methyl-2-[(5-methylfurane-2-carbonyl)-aminomethyl]-5-phenyl-1H-2,3-dihydro-1,4-benzodiazepine], in that order: 4.4 mg/kg and 30 mg/kg.
On to `Cc1ccc(C(=O)NCC2CN=C(c3ccccc3)c3cc4c(cc3N2C)OCO4)s1` (stereo not shown) [Compound 32, 7,8-methylenedioxy-1-methyl-2-[(5-methylthiophene-2-carbonyl)-aminomethyl]-5-phenyl-1H-2,3-dihydro-1,4-benzodiazepine], for which the ED50 in assay [1] is 5.6 mg/kg; in assay [2], < 18 mg/kg.
For `COc1ccc2c(c1)N(C)C(CNC(=O)c1cccn1C)CN=C2c1ccccc1` (stereo not shown) [Compound 33, 8-methoxy-1-methl-2-[(1-methylpyrrol-2-carbonyl)-aminomethyl]-5-phenyl-1H-2.3-dihydro-1,4-benzodiazepine], the figures for the ED50 in assay [1] and in assay [2] were 1 mg/kg and < 18 mg/kg, respectively.
For `COc1ccc2c(c1)N(C)C(CNC(=O)c1ccoc1)CN=C2c1ccc(F)cc1` (stereo not shown) [Compound 34, 8-methoxy-1-methyl-2-[(furane-3-carbonyl)-aminomethyl]-5-(4-fluorophenyl)-1H-2,3-dihydro-1,4-benzodiazepine], in that order: 2.1 mg/kg and 5.6 mg/kg.
For `COc1ccc2c(c1)N(C)C(CNC(=O)c1ccoc1)CN=C2c1ccccc1C(F)(F)F` (stereo not shown) [Compound 35, 8-methoxy-1-methyl-2-[(furane-3-carbonyl)-aminomethyl]-5-(2-trifluoromethylphenyl)-1H-2,3-dihydro-1,4-benzodiazepine], in that order: 1 mg/kg and < 18 mg/kg.
For `CN1c2ccccc2C(c2ccccc2)=NCC1CNC(=O)c1cccn1C` (stereo not shown) [Compound 36, 1-methyl-2-[(1-methylpyrrol-2-carbonyl)-aminomethyl]-5-phenyl-1H-2,3-dihydro-1,4-benzodiazepine], in that order: 2.1 mg/kg and > 18 mg/kg.
Consider `CN1c2cc(Cl)ccc2C(c2ccccc2)=NCC1CNC(=O)c1ccoc1` (stereo not shown) [Compound 37, 8-chloro-1-methyl-2-[(furane-3-carbonyl)-aminomethyl]-5-phenyl-1H-2,3-dihydro-1,4-benzodiazepine], for which the median effective dose (ED50) in assay [1] was 1.2 mg/kg; in assay [2] it was > 18 mg/kg.
For `CN1c2cc(F)ccc2C(c2ccccc2)=NCC1CNC(=O)c1ccoc1` (stereo not shown) [Compound 38, 8-fluoro-1-methyl-2-[(furane-3-carbonyl)-amino-methyl]-5-phenyl-1H-2,3-dihydro-1,4-benzodiazepine], in that order: 0.32 mg/kg and < 18 mg/kg.
For `COc1ccc2c(c1)N(C)C(CNC(=O)c1ccoc1)CN=C2c1ccccc1F` (stereo not shown) [Compound 39, 8-methoxy-1-methyl-2-[(furane-3-carbonyl)-amino-methyl]-5-(2-fluorophenyl)-1H-2,3-dihydro-1,4-benzodiazepine], in that order: 0.7 mg/kg and < 10 mg/kg.
For `COc1ccc2c(c1)N(C)C(CNC(=O)c1cccs1)CN=C2c1ccccc1F` (stereo not shown) [Compound 40, 8-methoxy-1-methyl-2-[(thiophene-2-carbonyl)-aminomethyl]-5-(2-fluorophenyl)-1H-2,3-dihydro-1,4-benzodiazepine], in that order: 1.2 mg/kg and < 18 mg/kg.
As for `CN1c2cc3c(cc2C(c2ccccc2)=NCC1CNC(=O)c1ccsc1)OCO3` (stereo not shown) [Compound 41, 7,8-methylenedioxy-1-methyl-2-[(thiophene-3-carbonyl)-aminomethyl]-5-phenyl-1H-2,3-dihydro-1,4-benzodiazepine], the ED50 came to 2.1 mg/kg in assay [1] and 5.6 mg/kg in assay [2].
Consider `COc1ccc2c(c1)N(C)C(CNC(=O)c1ccoc1)CN=C2c1cccc(F)c1` (stereo not shown) [Compound 42, 8-methoxy-1-methyl-2-[(furane-3-carbonyl)-aminomethyl]-5-(3-fluorophenyl)-1H-2,3-dihydro-1,4-benzodiazepine], for which the ED50 is 5.6 mg/kg in assay [1] and < 18 mg/kg in assay [2].
For `Cc1ccc(C(=O)NCC2CN=C(c3ccccc3)c3ccc(F)cc3N2C)s1` (stereo not shown) [Compound 43, 8-fluoro-1-methyl-2-[(5-methylthiophene-2-carbonyl)-aminomethyl]-5-phenyl-1H-2,3-dihydro-1,4-benzodiazepine], in that order: 5.6 mg/kg and < 18 mg/kg.
For `CN1c2cc3c(cc2C(c2ccccc2)=NCC1CNC(=O)c1ccoc1)OCCO3` (stereo not shown) [Compound 44, 7,8-ethylenedioxy-1-methyl-2-[(furane-3-carbonyl)-aminomethyl]-5-phenyl-1H-2,3-dihydro-1,4-benzodiazepine], in that order: > 5.6 mg/kg and < 18 mg/kg.
For `Cc1ccc2c(c1)C(c1ccccc1F)=NCC(CNC(=O)c1ccoc1)N2C` (stereo not shown) [Compound 45, 1,7-dimethyl-2-[(furane-3-carbonyl)-aminomethyl]-5-(2-fluorophenyl)-1H-2,3-dihydro-1,4-benzodiazepine], in that order: 3.8 mg/kg and < 18 mg/kg.
With `COc1ccc2c(c1)N(C)C(CNC(=O)c1ccc(Br)s1)CN=C2c1ccccc1F` (stereo not shown) [Compound 46, 8-methoxy-1-methyl-2-[(5-bromothiophene-2-carbonyl)-aminomethyl]-5-(2-fluorophenyl)-1H-2,3-dihydro-1,4-benzodiazepine], the ED50 is 5.6 mg/kg in assay [1] and < 18 mg/kg in assay [2].
In the case of `COc1ccc2c(c1)N(C)C(CNC(=O)c1cccs1)CN=C2c1ccc(F)cc1` (stereo not shown) [Compound 47], the ED50 was 3.2 mg/kg in assay [1] and < 18 mg/kg in assay [2].
